One assay has as its system T1, MaMATE14.
T1 construct: full-length cDNA in pYES2, expressed in Saccharomyces cerevisiae BY4741; microsomal vesicles; 510 residues; 12 predicted transmembrane segments
Nature of the assay: uptake into yeast microsomal vesicles, HPLC, Lineweaver-Burk. The assay is classed as biochemical, Muscari aucheri. The note with it: transport; 5 mM MgATP, 25 mM Tris-MES pH 8.0, 50 mM KCl, 25 °C, 20 min; minus-ATP subtracted.

For a further assay, the system named is T2, MaMATE11.
T2 construct: full-length cDNA in pYES2, expressed in Saccharomyces cerevisiae BY4741; microsomal vesicles; 441 residues; 10 predicted transmembrane segments
The assay is described as above. As to conditions: transport; 5 mM MgATP, 25 mM Tris-MES pH 8.0, 50 mM KCl, 25 °C, 20 min; minus-ATP subtracted. It is filed as biochemical, Muscari aucheri.

For `Oc1ccc([C@H]2Oc3cc(O)cc(O)c3C[C@H]2O)cc1` [(−)-epiafzelechin], the Km (in general, the concentration of substrate that gives half-maximal velocity) was 43.8 µM in the assay with MaMATE14 and 57.4 µM with MaMATE11.
Regarding `OC[C@H]1O[C@@H](Oc2cc3c(O[C@@H]4O[C@H](CO)[C@@H](O)[C@H](O)[C@H]4O)cc(O)cc3[o+]c2-c2ccc(O)c(O)c2)[C@H](O)[C@@H](O)[C@@H]1O` [cyanidin-3,5-di-O-glucoside], the Km with MaMATE14 was determined as 45.3 µM; in the assay with MaMATE11, 27 µM.
On the same counts, the results for `OC[C@H]1O[C@@H](Oc2cc3c(O)cc(O)cc3[o+]c2-c2ccc(O)c(O)c2)[C@H](O)[C@@H](O)[C@@H]1O` [cyanidin-3-O-glucoside] are 61.4 µM and 57.5 µM.
On the same counts, the results for `O=c1c(O)c(-c2ccc(O)cc2)oc2cc(O[C@@H]3O[C@H](CO)[C@@H](O)[C@H](O)[C@H]3O)cc(O)c12` [kaempferol 7-O-glucoside] are 57.4 µM and 60.2 µM.

Source of the values: publication PMC12863215, “The vacuolar transporters MaMATE11 and MaMATE14 affect blue flower coloration in grape hyacinth (Muscari)” (Horticulture Research, 2025).
